Measurements taken from ChEMBL document CHEMBL4507325 (2021).

Tests used:
[1] = target: Aspartate aminotransferase, mitochondrial (Homo sapiens, UniProt P00505); assay: Aspartate transaminase assay (GOT2)
[2] = target: 5-hydroxytryptamine receptor 1A (Homo sapiens) (UniProt P08908); details: Compound concentration 10.0 uM
[3] = target: 5-hydroxytryptamine receptor 1B (Homo sapiens) (UniProt P28222); details: Compound concentration 10.0 uM
[4] = target: 5-hydroxytryptamine receptor 2A (Homo sapiens) (UniProt P28223); details: Compound concentration 10.0 uM
[5] = target: 5-hydroxytryptamine receptor 5A (Homo sapiens) (UniProt P47898); details: Compound concentration 10.0 uM
[6] = target: 5-hydroxytryptamine receptor 7 (Homo sapiens) (UniProt P34969); details: Compound concentration 10.0 uM
[7] = target: Sodium-dependent noradrenaline transporter (Homo sapiens) (UniProt P23975); details: Compound concentration 10.0 uM
[8] = target: T1, GABA-A receptor; anion channel (Rattus norvegicus) (UniProt O09028+P15431+P18506+P18508+P19969+P20236+P23574+P23576+P28471+P28473+P30191+P62813+P63079+P63138+Q91ZM7+Q9ES14); details: Compound concentration 10.0 uM
[9] = target: Histamine H1 receptor (Homo sapiens) (UniProt P35367); details: Compound concentration 10.0 uM
[10] = target: Alpha-1A adrenergic receptor (Homo sapiens) (UniProt P35348); details: Compound concentration 10.0 uM
[11] = target: Alpha-1B adrenergic receptor (Homo sapiens) (UniProt P35368); details: Compound concentration 10.0 uM
[12] = target: Alpha-2B adrenergic receptor (Homo sapiens) (UniProt P18089); details: Compound concentration 10.0 uM
[13] = target: Muscarinic acetylcholine receptor M1 (Homo sapiens) (UniProt P11229); details: Compound concentration 10.0 uM
[14] = target: Beta-3 adrenergic receptor (Homo sapiens) (UniProt P13945); details: Compound concentration 10.0 uM
[15] = target: T1, GABA-A receptor; anion channel (Rattus norvegicus); details: Compound concentration 10.0 uM; remark: listed apart in the source
Rattus norvegicus = organism: Rattus norvegicus; details: Compound concentration 10.0 uM
[16] = target: Alpha-1D adrenergic receptor (Homo sapiens) (UniProt P25100); details: Compound concentration 10.0 uM
[17] = target: Sigma intracellular receptor 2 (Homo sapiens) (UniProt Q5BJF2); details: Compound concentration 10.0 uM
[18] = target: Adenosine receptor A1 (Homo sapiens) (UniProt P30542); details: Compound concentration 10.0 uM
[19] = target: Alpha-1A adrenergic receptor (Homo sapiens) (UniProt P35348); details: Rattus norvegicus; Compound concentration 10.0 uM
[20] = target: Alpha-2A adrenergic receptor (Homo sapiens) (UniProt P08913); details: Compound concentration 10.0 uM
[21] = target: D(2) dopamine receptor (Homo sapiens) (UniProt P14416); details: Compound concentration 10.0 uM
[22] = target: D(3) dopamine receptor (Homo sapiens) (UniProt P35462); details: Compound concentration 10.0 uM
[23] = target: Estrogen receptor (Homo sapiens) (UniProt P03372); details: Compound concentration 10.0 uM
[24] = target: Glutamate NMDA receptor (Rattus norvegicus) (UniProt P35439+Q00959+Q00960+Q00961+Q62645+Q8VHN2+Q9R1M7); details: Compound concentration 10.0 uM
[25] = target: Muscarinic acetylcholine receptor M1 (Homo sapiens) (UniProt P11229); details: Compound concentration 10.0 uM; remark: listed apart in the source
[26] = target: Muscarinic acetylcholine receptor M2 (Homo sapiens) (UniProt P08172); details: Compound concentration 10.0 uM
[27] = target: Muscarinic acetylcholine receptor M3 (Homo sapiens) (UniProt P20309); details: Compound concentration 10.0 uM
[28] = target: Delta-type opioid receptor (Homo sapiens) (UniProt P41143); details: Compound concentration 10.0 uM
[29] = target: Purinergic P2Y (Rattus norvegicus) (UniProt O35811+Q9EPX4+P49651+Q63371+P41232+O35881+Q6GUG4); details: Compound concentration 10.0 uM
[30] = target: 5-hydroxytryptamine receptor 1A (Homo sapiens) (UniProt P08908); details: Compound concentration 10.0 uM; remark: listed apart in the source
[31] = target: 5-hydroxytryptamine receptor 2B (Homo sapiens) (UniProt P41595); details: Compound concentration 10.0 uM
[32] = target: Sodium-dependent dopamine transporter (Homo sapiens) (UniProt Q01959); details: Compound concentration 10.0 uM
[33] = target: Sodium-dependent noradrenaline transporter (Homo sapiens) (UniProt P23975); details: Compound concentration 10.0 uM; remark: listed apart in the source
[34] = target: T1, GABA-A receptor; anion channel (Rattus norvegicus); details: Compound concentration 10.0 uM; remark: listed apart in the source
[35] = target: Vasopressin V1a receptor (Homo sapiens) (UniProt P37288); details: Compound concentration 10.0 uM
[36] = target: Type-1 angiotensin II receptor (Homo sapiens) (UniProt P30556); details: Compound concentration 10.0 uM
[37] = target: Androgen receptor (Homo sapiens) (UniProt P10275); details: Compound concentration 10.0 uM
[38] = target: B1 bradykinin receptor (Homo sapiens) (UniProt P46663); details: Compound concentration 10.0 uM
[39] = target: Glutamate receptor ionotropic, kainate (Rattus norvegicus) (UniProt P22756+Q01812+P42260+P42264+Q63273); details: Compound concentration 10.0 uM
Homo sapiens = organism: Homo sapiens; details: Compound concentration 10.0 uM
[40] = target: Motilin receptor (Homo sapiens) (UniProt O43193); details: Compound concentration 10.0 uM
Chain of Motilin receptor (Homo sapiens) (O43193 whole entry): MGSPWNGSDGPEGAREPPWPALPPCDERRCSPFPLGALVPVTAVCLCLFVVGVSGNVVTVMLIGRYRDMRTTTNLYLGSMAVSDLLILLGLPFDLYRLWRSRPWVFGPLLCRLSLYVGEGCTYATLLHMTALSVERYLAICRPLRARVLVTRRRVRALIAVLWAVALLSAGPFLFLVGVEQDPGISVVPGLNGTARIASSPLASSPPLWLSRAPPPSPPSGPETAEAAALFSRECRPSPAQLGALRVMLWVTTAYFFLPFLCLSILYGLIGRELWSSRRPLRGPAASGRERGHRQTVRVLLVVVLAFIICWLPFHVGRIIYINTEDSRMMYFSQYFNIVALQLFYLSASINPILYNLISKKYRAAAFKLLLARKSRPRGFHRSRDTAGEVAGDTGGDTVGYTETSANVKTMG

Chain of Muscarinic acetylcholine receptor M1 (Homo sapiens) (P11229 whole entry): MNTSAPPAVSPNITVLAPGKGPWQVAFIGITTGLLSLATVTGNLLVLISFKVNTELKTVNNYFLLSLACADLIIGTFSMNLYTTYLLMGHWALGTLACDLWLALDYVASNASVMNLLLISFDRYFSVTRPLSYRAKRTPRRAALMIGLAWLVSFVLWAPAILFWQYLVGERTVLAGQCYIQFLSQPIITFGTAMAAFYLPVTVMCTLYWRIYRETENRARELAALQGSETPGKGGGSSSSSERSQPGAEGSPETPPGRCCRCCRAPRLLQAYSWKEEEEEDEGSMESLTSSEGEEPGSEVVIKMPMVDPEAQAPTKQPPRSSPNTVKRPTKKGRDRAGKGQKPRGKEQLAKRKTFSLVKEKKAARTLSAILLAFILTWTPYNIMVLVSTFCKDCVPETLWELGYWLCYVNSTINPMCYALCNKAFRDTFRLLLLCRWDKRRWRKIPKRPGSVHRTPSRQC
Chain of 5-hydroxytryptamine receptor 1A (Homo sapiens) (P08908 whole entry): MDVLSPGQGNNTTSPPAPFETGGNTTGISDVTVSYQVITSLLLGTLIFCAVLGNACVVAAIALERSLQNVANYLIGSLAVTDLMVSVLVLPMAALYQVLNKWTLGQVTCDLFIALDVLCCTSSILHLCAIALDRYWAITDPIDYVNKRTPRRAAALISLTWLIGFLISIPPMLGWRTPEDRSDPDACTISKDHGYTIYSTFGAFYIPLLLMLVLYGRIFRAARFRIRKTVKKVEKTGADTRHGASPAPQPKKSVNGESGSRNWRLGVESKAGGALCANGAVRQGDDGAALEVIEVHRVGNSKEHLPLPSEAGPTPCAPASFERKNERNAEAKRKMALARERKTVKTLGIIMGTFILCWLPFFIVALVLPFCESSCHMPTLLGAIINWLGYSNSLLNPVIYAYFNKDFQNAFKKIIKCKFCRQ
Chain of Alpha-1A adrenergic receptor (Homo sapiens) (P35348 whole entry): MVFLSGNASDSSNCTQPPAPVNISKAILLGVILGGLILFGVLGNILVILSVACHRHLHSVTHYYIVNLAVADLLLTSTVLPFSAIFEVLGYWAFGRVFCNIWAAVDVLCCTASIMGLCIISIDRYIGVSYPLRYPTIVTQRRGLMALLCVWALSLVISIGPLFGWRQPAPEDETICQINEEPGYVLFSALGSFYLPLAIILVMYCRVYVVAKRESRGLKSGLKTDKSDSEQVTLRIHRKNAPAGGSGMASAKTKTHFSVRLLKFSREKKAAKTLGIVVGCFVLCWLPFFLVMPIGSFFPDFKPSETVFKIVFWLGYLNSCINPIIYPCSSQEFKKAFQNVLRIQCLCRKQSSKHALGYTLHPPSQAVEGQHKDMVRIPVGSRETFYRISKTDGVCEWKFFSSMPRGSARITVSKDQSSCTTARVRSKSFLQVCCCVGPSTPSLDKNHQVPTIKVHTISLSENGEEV
Chain of Sodium-dependent noradrenaline transporter (Homo sapiens) (P23975 whole entry): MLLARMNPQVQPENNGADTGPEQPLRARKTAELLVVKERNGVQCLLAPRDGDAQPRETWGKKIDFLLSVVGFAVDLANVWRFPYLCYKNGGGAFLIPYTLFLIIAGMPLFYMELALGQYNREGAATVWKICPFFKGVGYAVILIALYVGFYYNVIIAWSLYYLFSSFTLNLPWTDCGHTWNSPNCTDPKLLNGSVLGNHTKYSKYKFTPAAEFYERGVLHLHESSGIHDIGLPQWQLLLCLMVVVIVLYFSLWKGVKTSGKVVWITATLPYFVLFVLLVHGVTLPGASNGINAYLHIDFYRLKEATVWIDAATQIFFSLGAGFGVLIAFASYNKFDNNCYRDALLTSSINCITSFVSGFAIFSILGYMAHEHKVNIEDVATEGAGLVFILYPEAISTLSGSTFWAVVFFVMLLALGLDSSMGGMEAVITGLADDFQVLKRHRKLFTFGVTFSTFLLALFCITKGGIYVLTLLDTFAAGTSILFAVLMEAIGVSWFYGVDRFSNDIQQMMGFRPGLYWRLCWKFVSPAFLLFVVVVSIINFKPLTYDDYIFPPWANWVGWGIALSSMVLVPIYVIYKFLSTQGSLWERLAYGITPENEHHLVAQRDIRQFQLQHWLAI
Chain of Androgen receptor (Homo sapiens) (P10275 whole entry): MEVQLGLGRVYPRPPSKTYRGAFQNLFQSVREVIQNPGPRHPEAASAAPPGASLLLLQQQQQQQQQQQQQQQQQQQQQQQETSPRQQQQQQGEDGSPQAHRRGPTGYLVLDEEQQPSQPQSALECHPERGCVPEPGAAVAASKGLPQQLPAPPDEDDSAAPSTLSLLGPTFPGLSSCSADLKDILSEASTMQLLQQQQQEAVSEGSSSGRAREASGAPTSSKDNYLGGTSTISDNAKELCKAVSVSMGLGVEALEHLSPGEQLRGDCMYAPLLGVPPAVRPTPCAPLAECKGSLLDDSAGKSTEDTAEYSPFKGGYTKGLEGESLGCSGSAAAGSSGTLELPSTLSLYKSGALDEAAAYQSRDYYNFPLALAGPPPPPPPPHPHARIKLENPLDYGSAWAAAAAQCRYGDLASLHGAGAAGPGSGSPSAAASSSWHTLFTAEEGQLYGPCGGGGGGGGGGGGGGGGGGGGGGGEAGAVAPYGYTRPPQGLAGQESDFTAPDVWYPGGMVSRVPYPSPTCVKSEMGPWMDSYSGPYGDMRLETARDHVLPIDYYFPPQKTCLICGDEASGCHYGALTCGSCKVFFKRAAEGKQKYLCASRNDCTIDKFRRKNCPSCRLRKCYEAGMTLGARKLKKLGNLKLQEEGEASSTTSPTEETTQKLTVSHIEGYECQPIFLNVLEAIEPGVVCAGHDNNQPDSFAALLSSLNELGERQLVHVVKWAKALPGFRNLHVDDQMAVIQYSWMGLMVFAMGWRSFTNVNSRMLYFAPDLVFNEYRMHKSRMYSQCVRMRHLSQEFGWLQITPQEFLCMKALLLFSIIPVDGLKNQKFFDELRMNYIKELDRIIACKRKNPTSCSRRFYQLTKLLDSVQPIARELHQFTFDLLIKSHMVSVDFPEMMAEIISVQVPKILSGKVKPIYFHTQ
Chain of Delta-type opioid receptor (Homo sapiens) (P41143 whole entry): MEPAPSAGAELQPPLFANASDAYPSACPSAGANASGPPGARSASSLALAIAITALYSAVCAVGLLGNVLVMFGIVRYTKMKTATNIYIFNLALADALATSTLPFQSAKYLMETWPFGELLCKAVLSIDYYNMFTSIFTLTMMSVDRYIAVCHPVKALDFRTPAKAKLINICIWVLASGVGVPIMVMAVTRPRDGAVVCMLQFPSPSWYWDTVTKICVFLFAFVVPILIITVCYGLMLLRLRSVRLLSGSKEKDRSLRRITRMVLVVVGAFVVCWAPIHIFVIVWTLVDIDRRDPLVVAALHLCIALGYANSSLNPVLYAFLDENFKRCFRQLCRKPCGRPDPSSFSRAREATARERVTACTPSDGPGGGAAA
Chain of Aspartate aminotransferase, mitochondrial (P00505 whole entry): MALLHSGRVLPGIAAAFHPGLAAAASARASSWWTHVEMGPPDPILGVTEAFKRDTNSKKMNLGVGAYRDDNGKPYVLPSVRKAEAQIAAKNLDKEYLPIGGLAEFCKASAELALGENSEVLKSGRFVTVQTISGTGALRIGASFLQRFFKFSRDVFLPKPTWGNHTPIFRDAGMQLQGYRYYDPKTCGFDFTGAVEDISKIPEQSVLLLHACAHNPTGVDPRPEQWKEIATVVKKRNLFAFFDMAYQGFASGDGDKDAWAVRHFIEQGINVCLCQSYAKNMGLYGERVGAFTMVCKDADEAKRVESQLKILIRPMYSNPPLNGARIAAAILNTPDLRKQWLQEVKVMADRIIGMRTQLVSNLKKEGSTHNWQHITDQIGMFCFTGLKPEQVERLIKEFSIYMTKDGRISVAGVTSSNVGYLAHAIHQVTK
Chain of Alpha-2B adrenergic receptor (Homo sapiens) (P18089 whole entry): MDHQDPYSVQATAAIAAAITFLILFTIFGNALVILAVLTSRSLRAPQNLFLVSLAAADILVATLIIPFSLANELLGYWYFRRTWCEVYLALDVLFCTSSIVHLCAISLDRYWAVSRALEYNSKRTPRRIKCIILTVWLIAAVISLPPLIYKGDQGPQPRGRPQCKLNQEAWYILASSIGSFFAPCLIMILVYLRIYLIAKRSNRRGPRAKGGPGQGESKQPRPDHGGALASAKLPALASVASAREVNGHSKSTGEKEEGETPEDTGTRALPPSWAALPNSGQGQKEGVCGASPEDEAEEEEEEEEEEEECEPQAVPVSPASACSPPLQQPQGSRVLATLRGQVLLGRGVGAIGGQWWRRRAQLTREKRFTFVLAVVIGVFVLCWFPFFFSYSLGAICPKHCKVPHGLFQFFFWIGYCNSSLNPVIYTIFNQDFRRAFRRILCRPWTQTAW
Chain of Sigma intracellular receptor 2 (Homo sapiens) (Q5BJF2 whole entry): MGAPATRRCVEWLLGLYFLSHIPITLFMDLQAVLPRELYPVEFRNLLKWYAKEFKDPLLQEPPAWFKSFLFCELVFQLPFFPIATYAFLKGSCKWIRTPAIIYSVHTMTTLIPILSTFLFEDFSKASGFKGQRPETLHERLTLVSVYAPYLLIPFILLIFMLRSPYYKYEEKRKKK

Which IC50 [1] does the source give for `Cc1ccccc1Oc1cc(-n2c(=O)cc(C(F)(F)F)[nH]c2=O)c2ccccc2c1Cl` [BAY-069] here?
Its IC50 is > 50 µM (not active).

What about the inhibition [2] of the same compound?
Its inhibition is 8.88%.

And the inhibition [3]?
The inhibition was 4.02%.

And the inhibition [4]?
Its inhibition is -2.88%.

What about the inhibition [5] of the same compound?
The inhibition was 5.61%.

What about the inhibition [6] of the same compound?
The inhibition was 13.1%.

What about the inhibition [7] of the same compound?
The inhibition was -1.01%.

And the inhibition [8]?
The inhibition was 11.3%.

And the inhibition [9]?
The inhibition was 10.3%.

And the inhibition [10]?
The inhibition was -2.81%.

What about the inhibition [11] of the same compound?
The inhibition was 19.3%.

What about the inhibition [12] of the same compound?
Its inhibition is -8.63%.

And the inhibition [13]?
Its inhibition is 17.8%.

What about the inhibition [14] of the same compound?
The inhibition was 22.9%.

What about the inhibition [15] of the same compound?
Its inhibition is 16.3%.

And the inhibition (Rattus norvegicus)?
The inhibition was 63.9%.

And the inhibition [16]?
Its inhibition is -5.48%.

What about the inhibition [17] of the same compound?
The inhibition was -7.5%.

What about the inhibition [18] of the same compound?
Its inhibition is 27%.

And the inhibition [19]?
Its inhibition is 5%.

And the inhibition [20]?
Its inhibition is 2%.

What about the inhibition [21] of the same compound?
The inhibition was -5%.

And the inhibition [22]?
The inhibition was 14%.

And the inhibition [23]?
Its inhibition is 6%.

What about the inhibition [24] of the same compound?
Its inhibition is 11%.

And the inhibition [25]?
Its inhibition is 8%.

And the inhibition [26]?
Its inhibition is 4%.

And the inhibition [27]?
Its inhibition is -7%.

And the inhibition [28]?
The inhibition was -3%.

And the inhibition [29]?
The inhibition was -4%.

What about the inhibition [30] of the same compound?
The inhibition was 9%.

What about the inhibition [31] of the same compound?
Its inhibition is 1%.

And the inhibition [32]?
The inhibition was 33%.

What about the inhibition [33] of the same compound?
The inhibition was 22%.

What about the inhibition [34] of the same compound?
Its inhibition is 15%.

What about the inhibition [35] of the same compound?
Its inhibition is 7%.

And the inhibition [36]?
The inhibition was 7%.

What about the inhibition [37] of the same compound?
Its inhibition is 9%.

And the inhibition [38]?
The inhibition was -8%.

And the inhibition [39]?
Its inhibition is -4%.

And the inhibition (Homo sapiens)?
The inhibition was -8%.

And the inhibition [40]?
The inhibition was 4%.
